# Measurements reported in US20260130959A1, “FUNGAL EXTRACTS AND FLAVOR COMBINATIONS THEREOF” (MYCOTECHNOLOGY, INC., priority 2019, published 2026).
# System: Sprague-Dawley rats
# Experiment: Rat lick study (Davis Rig) on saccharin, citric acid and quinine
# Format: in vivo
# Conditions: water 192 licks
# Description: Bitter blocker prepared as described above in Example 2, at 5, 25, 50 and 100 mg/L alone (called CLEARTASTE® herein) and added to each solution below:
# Sucrose 250 mM; Saccharin 10 mM; MSG 150 mM; NaCl 400 and 800 mM; Citric Acid 10 mM; Quinine 0.08 and 0.16 mM.
# 16 naïve, adult (>50 days old, approximately 200 gram body weight), male Sprague-Dawley rats were tested in the MS-160 “Davis Rig,” manufactured by DiLog Instruments, Inc. We measured licking behavior at a resolution of 1 ms during the controlled presentation of up to 16 taste stimuli. The Davis Rig is housed inside an acoustic isolation chamber utilizing a white noise generator. Intake and exhaust fans located on opposing walls of the chamber direct constant air flow along the longitudinal axis of the stimulus delivery tray in order to reduce olfactory cues for any given stimulus. Therefore all licking behavior during brief (30 s duration) trials was motivated by orosensory/taste sensations. Rats were trained to lick during trials presenting water as the stimulus in the Davis Rig for three consecutive days prior to the start of testing. Each daily test session contained two blocks of 15 trials producing two replications of each test stimulus within each daily session. We tested the rats for a total of eight days.
smiles,measurement,setting,value
C=C[C@H]1C[N@@]2CC[C@H]1C[C@H]2[C@H](O)c1ccnc2ccc(OC)cc12 [quinine],licks,0.08 mM quinine alone,170 licks
same,licks,0.16 mM quinine alone,70 licks
